Columns and labels:
VCaP xenograft tumors = experiment: castration-resistant VCaP xenograft mouse model; assay type: in vivo, NOD-SCID mice
Excerpt: Figure 4 Zeta55 inhibits tumor growth in a CRPC xenograft model. (A) Percentage change in individual tumor volume of NOD-SCID mice with subcutaneous tumor xenograft grown from VCaP cells. NOD-SCID mice were castrated when the tumor volumes reached about 250mm^3 on 63 days after subcutaneous injection of VCaP cells. […]. Tumor sizes were monitored twice a week after treatment. (B) Mean tumor volumes (mm^3, +SEM) of NOD-SCID mice after treatment. (C) Mean body weight (g, +SEM) of NOD-SCID mice after treatment. *, P < 0.01 vs. vehicle.
The animal protocols used in this study were evaluated and approved by the Xiangya Hospital Medical ethics committee of Central South University. NOD-SCID mice were purchased from Hunan SJA Laboratory Animal Co. Ltd. with a quality license and raised in the SPF Laboratory Animal Room of the Department of Laboratory Zoology at Central South University. Briefly, VCaP cells were suspended in DMEM and Matrigel (BD) (1:1), and 5×10^6 cells/100 μl were subcutaneously injected into a 7-week-old male NOD-SCID mouse. […]. VCaP xenografts were measured twice per week in two dimensions (L and W) by a Vernier caliper, and the tumor volume was calculated as W^2×L/2 (mm^3).
Formalin-fixed, paraffin-embedded xenograft tissue sections were used for immunohistochemistry. TUNEL staining was performed according to the instructions in the TUNEL kit (KeyGEN). Tissue sections were deparaffinized and then boiled in 0.01 mol/L sodium citrate buffer (pH 6.0) in a kilowatt microwave oven for 10 minutes to retrieve cell antigens. Ki67 (Abcam, ab15580) or AR (SANTA, sc-7305) was used as the primary antibody. All tissue sections were immunohistochemically stained using the avidin-biotin-peroxidase method and were counterstained with hematoxylin. The staining intensities were evaluated at 100× magnification.

AR-LBD = experiment: AR competitive binding, fluorescence polarization
Method: To evaluate the AR inhibition activities of Zeta55, an AR luciferase activity assay was performed (Table 1 and Supplementary Figure 1). […]. To evaluate the HDAC inhibition activities of Zeta55, fluorescent-based HDAC assays were performed (Table 1 and Supplementary Figure 3). […]. Both compounds seem ineffective against HDAC4.
Supplementary Figure 1. […]
polarization assay. Test compounds were incubated with recombinant AR-LBD (GST) and the fluorescence polarization (mP) was measured
at an excitation wavelength of 485 nm and emission wavelength of 535 nm. […]

PSA = PSA mRNA (qRT-PCR) and protein (Western blot) expression in VCaP cells; assay type: cell-based; details: 10 nM DHT, 24 hours
Method: RNA expression level was analyzed by qRT-PCR and protein expression level was analyzed by Western blot. […] (I) Representative immunofluorescence microscopic images of VCaP cells for checking the subcellular localization of AR.
The RNA of VCaP cells was extracted using a Simply P Total RNA Extraction kit (Bioer technology) and cDNA was synthesized using a SMARTer PCR cDNA Synthesis Kit (Clontech). PSA and β-actin primers were synthesized by Sangon Biotech according to previous literature. Real-time PCR was performed using the PowerUp SYBR™ Green kit (ThermoFisher). The PCR program was run on a LightCycler 480II (Roche) and set as follows: 2 minutes at 95° C followed by 40 cycles of 30 seconds at 95° C, 15 seconds at 60° C and 30 seconds at 72° C. Data were quantified using the 2-ΔΔCt method based on the Ct values of PSA and β-actin from two parallel experiments performed in triplicate.
The whole-cell extracts were prepared in lysis buffer with a protease inhibitor cocktail (Bimake), while the xenograft tissue extracts were prepared in 0.5% Nonidet P 40 Substitute solution (Biosharp) with cocktail protease inhibitor (Bimake). Each sample containing 30 μg of total protein was loaded onto 10% SDS-PAGE and electrotransferred onto polyvinylidene fluoride membranes. […]

HDAC2 = molecular target: T1, HDAC2 (Homo sapiens, UniProt Q92769); experiment: biochemical
T1 construct: purchased BPS Bioscience
T1 sequence (Q92769 whole entry): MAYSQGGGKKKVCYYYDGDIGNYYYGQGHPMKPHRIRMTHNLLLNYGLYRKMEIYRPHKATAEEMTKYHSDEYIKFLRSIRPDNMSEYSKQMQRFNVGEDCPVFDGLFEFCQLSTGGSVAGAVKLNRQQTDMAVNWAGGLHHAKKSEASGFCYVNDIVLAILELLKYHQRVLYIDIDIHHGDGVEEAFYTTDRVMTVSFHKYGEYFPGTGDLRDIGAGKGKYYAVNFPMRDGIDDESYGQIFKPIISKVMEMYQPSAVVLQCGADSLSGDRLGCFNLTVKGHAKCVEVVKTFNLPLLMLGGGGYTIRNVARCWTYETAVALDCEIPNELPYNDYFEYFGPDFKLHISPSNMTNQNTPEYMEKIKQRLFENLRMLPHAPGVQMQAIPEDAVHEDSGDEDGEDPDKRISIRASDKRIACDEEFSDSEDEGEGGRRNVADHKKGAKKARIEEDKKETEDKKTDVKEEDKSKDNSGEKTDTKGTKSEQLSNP
Method: Commercial fluorescent assay kits were used to measure the activities of HDAC (BPS Bioscience). Briefly, the tested compounds were diluted in DMSO into a 96-well plate, and then assay buffer, HDAC, and substrate were added. The plate was incubated at 37° C for 30 minutes for enzymatic reactions, and the developer was added. After 10 minutes of incubation, the generated fluorescence was measured at an excitation of 380 nm and an emission of 460 nm.

DU145 cells = experiment: cell proliferation assay; assay type: cell-based; details: Homo sapiens, DU-145, 72 h, read-out: IC50 values proliferation DU145
LNCaP cells = experiment: cell proliferation assay; assay type: cell-based; details: Homo sapiens, 72 h, read-out: IC50 values proliferation LNCaP
Method: (§1) After 7 days, cell viability was measured using a CellTiter 96® AQueous One Solution Cell Proliferation Assay kit (Promega).

VCaP cells = experiment: cell proliferation assay; assay type: cell-based
Method: as §1

N#Cc1ccc(N2C(=O)C3(CCC3)N(c3ccc(C(=O)NO)c(F)c3)C2=S)cc1C(F)(F)F [Zeta55]
antitumor activity (VCaP xenograft tumors; 30 mg/kg/d oral, 49 days, compared with MDV3100 30 mg/kg/d): slightly better antitumor activity than MDV3100
tumors with tumor regression (VCaP xenograft tumors; 60 mg/kg/d oral, 49 days, n=6, castrated NOD-SCID mice): 5 of 6
weights of mice during treatment (VCaP xenograft tumors; 30 and 60 mg/kg daily oral): did not decrease significantly
expression of AR and PSA in treated tumors (VCaP xenograft tumors; immunohistochemical and Western blot analysis, compared to MDV3100 and vehicle): decreased expression of AR and PSA
Ki-67 staining of tumor xenografts (VCaP xenograft tumors; mouse, in vivo): inhibited tumor cell proliferation
TUNEL staining of tumor xenografts (VCaP xenograft tumors; mouse, in vivo): induced apoptosis
AR binding affinity relative to MDV3100 (AR-LBD): 60%
DHT-induced endogenous mRNA and protein expression of PSA (PSA): significantly suppressed
IC50 (HDAC2): > 20 µM
IC50 (DU145 cells): 45.7 µM
IC50 (LNCaP cells): 8.36 µM
IC50 (VCaP cells; Homo sapiens, VCaP, 168 h, read-out: IC50 values proliferation VCaP): 2.47 µM
anti-proliferation activity relative to MDV3100 (VCaP cells; VCaP cells): 4.5 fold
